Results as given in patent US20100028358A1, “Compositions and Methods for Controlling Tissue Factor Signaling Specificity” (priority 2005, published 2010).
Like-named read-outs stand apart in the source and are kept apart here. Where a SMILES comes first, the peptide text is derived from it. Bridges are numbered along the chain shown (N, C = ends). [ ]: non-standard residue; d: D form. The star is where a group is joined. Ileψ(thiazoline)Cys = CC[C@H](C)[C@H](N)C1=N[C@H](C(=O)*)CS1; dOrn = NCCC[C@@H](N)C(=O)O

Key:
[1] = biological target: tissue factor (TF) coagulant activity (Homo sapiens, UniProt P13726); test: TF coagulant activity (Xa generation) on HaCaT cells; assay type: cell-based
TF-PAR2 complex = TF-PAR2 complex (Homo sapiens, UniProt P13726); test: TF-PAR2 complex co-immunoprecipitation from HaCaT cells; assay type: cell-based; settings: Hg2+ pretreatment, high Ca2+ cells
From the text: Additional studies as illustrated in FIG. 7 indicate that TF-VIIa signaling requires TF.PAR2 complex formation. […] Loading controls were not feasible due to background, because no PAR suitable antibody from a different species was available for Western-blotting. […] MPB-labeled cells were immunoprecipitated with MAb-9C3 or MAb-10H10 and probed for PDI, TF or thiol-biotinylation with MPB.

PDI association with TF = PDI association with TF (Homo sapiens, UniProt P07237); test: Cell surface MPB/NHS labelling and TF immunoprecipitation (PDI association with TF)
Method: Cell surface labelling, immunoprecipitation, confocal imaging Cells were washed and labelled in HEPES buffer with 1.5 mM calcium chloride with either 100 μM MPB or 0.5 mg/ml NHS biotin at 4° C. for 20 min. […] Blots were digitized for densitometry using NIH Image Scion. Cells were stained on ice with directly conjugated antibodies for confocal microscopy using a Nikon TE2000-U microscope. Optical sections of each fluorophor were merged using Adobe Photoshop.

TF-VIIa signaling = TF-VIIa signaling in HaCaT cells (MAP kinase phosphorylation)

tissue factor (TF) coagulant activity, sequence (P13726 33-295): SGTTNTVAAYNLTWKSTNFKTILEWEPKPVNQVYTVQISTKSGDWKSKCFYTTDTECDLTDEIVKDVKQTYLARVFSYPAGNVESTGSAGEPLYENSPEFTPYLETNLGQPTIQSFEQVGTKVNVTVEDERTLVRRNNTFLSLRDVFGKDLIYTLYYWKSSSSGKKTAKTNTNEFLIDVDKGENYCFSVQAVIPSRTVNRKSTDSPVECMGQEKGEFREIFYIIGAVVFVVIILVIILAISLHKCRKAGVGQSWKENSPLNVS
PDI association with TF, sequence (P07237 18-508): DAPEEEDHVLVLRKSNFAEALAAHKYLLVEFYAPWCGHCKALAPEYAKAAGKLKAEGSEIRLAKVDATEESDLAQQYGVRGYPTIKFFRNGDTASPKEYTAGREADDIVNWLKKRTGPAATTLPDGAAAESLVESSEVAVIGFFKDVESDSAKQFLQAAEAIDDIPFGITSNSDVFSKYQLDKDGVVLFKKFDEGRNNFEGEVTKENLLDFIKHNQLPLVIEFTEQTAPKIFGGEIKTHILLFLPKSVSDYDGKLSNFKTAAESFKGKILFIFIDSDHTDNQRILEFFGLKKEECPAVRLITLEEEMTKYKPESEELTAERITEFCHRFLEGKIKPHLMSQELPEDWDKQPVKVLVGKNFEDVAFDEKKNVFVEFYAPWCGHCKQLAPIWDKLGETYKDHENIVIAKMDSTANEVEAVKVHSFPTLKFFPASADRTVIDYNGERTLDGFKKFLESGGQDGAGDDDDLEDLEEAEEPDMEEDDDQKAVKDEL
TF-PAR2 complex, sequence (P13726 33-295, one chain of several): as the sequence (P13726 33-295) above

N[C@@H](CCC(=O)N[C@@H](CS)C(=O)NCC(=O)O)C(=O)O [GSH, reduced glutathione]
TF coagulant activity after Hg2+-induced activation and washout [1]: no effect on TF activity

[Cl][Hg][Cl] [HgCl2]
PAR2 complex formation with TF in MAb-5G9 immunoprecipitates (TF-PAR2 complex): abolished PAR2 complex formation with TF
Concentration required to enhance TF coagulant activity [1]: 50 to 100 µM
HgCl2 activation of coagulation in the presence of bacitracin [1]: did not increase coagulation in the presence of bacitracin
TF coagulant activity in high Ca2+ cells [1]: increased TF coagulant activity substantially
TF coagulant activity in low Ca2+ cells [1]: little effect
Association (co-precipitation) of PDI with TF (PDI association with TF): specifically disrupted the association of PDI with TF

N[C@@H](CCC(=O)N[C@@H](CSN=O)C(=O)NCC(=O)O)C(=O)O [S-nitrosoglutathione]
TF coagulant activity after Hg2+-induced activation and washout [1]: sufficient to suppress TF coagulant activity

CC[C@H](C)[C@H](N)C1=N[C@H](C(=O)N[C@@H](CC(C)C)C(=O)N[C@H](CCC(=O)O)C(=O)N[C@H](C(=O)N[C@H]2CCCCNC(=O)[C@H](CC(N)=O)NC(=O)[C@@H](CC(=O)O)NC(=O)[C@H](Cc3cnc[nH]3)NC(=O)[C@@H](Cc3ccccc3)NC(=O)[C@H]([C@@H](C)CC)NC(=O)[C@@H](CCCN)NC2=O)[C@@H](C)CC)CS1 [bacitracin] ({Ileψ(thiazoline)Cys}-L[dE]IK[dOrn]I[dF]H[dD]N; lactam 4-C)
TF-VIIa signaling (TF-VIIa signaling; HaCaT cells, 10 nM VIIa): inhibited TF-VIIa signaling
HgCl2 activation of coagulation in the presence of bacitracin ([1]; HgCl2 with bacitracin): reversible inhibitor of HgCl2 activation
TF coagulant activity in high Ca2+ cells ([1]; high Ca2+ HaCaT cells, 100 μM HgCl2 for 2 minutes, bacitracin 3 mM): slightly increased coagulant function of TF
Association (co-precipitation) of PDI with TF (PDI association with TF; high Ca2+ HaCaT cells): prevented the co-precipitation of PDI with TF

C[C@@H]1C[C@@H]([C@H](O)CC2CC(=O)NC(=O)C2)C(=O)[C@@H](C)C1 [cycloheximide]
TF-VIIa signaling (TF-VIIa signaling): prevented TF-VIIa signaling
